The compounds below were run on HEK293 cells stably expressing wildtype human APP695 protein (HEK-APPwt cells) (assay: Aβ cell based assay (Aβ1-40 secretion, ELISA)). Conditions: 1 hr room temperature then five-hour incubation at 37° C., Aβ1-40 ELISA, DAPT as 100% inhibition reference, read-out: EC50, reduction of Aβ1-40 secretion in the cell based assay.
Description: Aβ Cell Based Assay Procedure
In the following assay, the proteolytic activity of BACE in cells exposed to varying concentrations of a compound of interest is measured by observing the amount of Aβ1-40 secreted from HEK293 cells (Human Embryonic Kidney epithelial cell line) stably expressing either wildtype human APP695 protein (HEK-APPwt cells).
HEK-APPwt cells were grown in high glucose DMEM (Dulbecco's Modified Eagles Medium) with 4500 mg glucose/L,L-glutamine, NaHCO3, pyrdoxin HCl, 10 mM HEPES (4-(2-hydroxyethyl)-1-piperazineethanesulfonic acid) (pH 7.4), 0.1 mM NEAA (Non-essential Amino Acids) (GIBCO Cat#11140-050), 10% fetal bovine serum and 250 μg/ml hygromycin in T-225 flasks at 37° C. with CO2 and humidity control.
Test compounds were initially prepared in DMSO and diluted with DMEM media containing 2% FBS (Fetal bovine serum) and 0.05% Tween20. Ten standard compound solutions were prepared having a range of concentrations. The standard compound solutions were used to determine the EC50 of the test compound. The range of concentrations chosen may depend on the compound's predicted potency.
To prepare the cells for the assay, a flask containing HEK-APPwt cells were trypsinized briefly (1 mL trypsin), and once the cells detached, 4 mL of 10% FBS-DMEM was added to the flask. The detached cells were centrifuged at 900 rpm for 5 min to form a pellet.
The HEK-APPwt cell pellet was re-suspended with 10 mL DMEM media containing 2% FBS. 80 μL of the cell suspension was added to each well of a 96-well cell culture plate to give 100,000 cells/well. 10 μL of a standard compound solution was added to each well of the 96-well cell culture plate followed by 10 μL of Alamar blue solution. The cells were incubated at room temperature for 1 hr, followed by a five-hour incubation in the CO2 incubator at 37° C.
At the end of the incubation, the plates were removed from incubator, and the supernatant was collected. Aβ1-40 concentration in the medium was measured by using a commercial Aβ1-40 ELISA kit (IBL, Japan). Briefly, the ELISA plates were coated with anti-human Aβ35-40 mouse IgG monoclonal antibody. A horseradish peroxidase enzyme conjugated anti-human Aβ11-28 mouse IgG monoclone antibody was used for detection. The cell culture supernatant was diluted 1:4 fold with (EIA buffer+Protease inhibitor (buffer containing Protease Inhibitor (1 mL PI/30 mL buffer). A 100 μL aliquot of the diluted supernatant was added to each well of the ELISA plate and incubated for 6 hrs at 4° C. The ELISA plate was washed 8 times with phosphate buffered saline (PBS) containing 0.05% Tween 20.
A 100 μL of detection antibody was then added and incubated for 1 hour at 4° C. The plate was washed 8 times with PBS buffer containing 0.05% Tween 20 followed by addition of 100 μL of the substrate with the chromogen tetramethyl benzidine (TMB). The plate was incubated in the dark at room temperature for about 30 min and a stop solution (1N H2SO4) was added.
The intensity of the color developed was measured at 450 nm. The optical density at 450 nm (OD450) is proportional to the concentration of human Aβ1-40 secreted by the cell. As a reference, N—[N-(3,5-difluorophenacetyl-L-alanyl)]-S-phenylglycine t-butyl ester (DAPT, a γ-secretase inhibitor) was used to indicate 100% inhibition of BACE activity. Thus, the assay measures the ability of a compound of interest to reduce Aβ1-40 secretion. Compound potency was reported as the EC50 by calculating the percent inhibition at all concentration levels and the data were fit with non-linear curve fitting algorithm using in GraphPad Prism.

Question: For O=C(Nc1nc2cccc(C(=O)Nc3ncc[nH]3)c2[nH]1)c1cc2ccccc2cn1 [Example 58, isoquinoline-3-carboxylic acid [4-(1H-imidazol-2-ylcarbamoyl)-1H-benzoimidazol-2-yl]-amide], which EC50 is on record?
Answer: ≤ 2000 nM

Question: How did the EC50 turn out when O=C(Nc1ncc[nH]1)c1ccc2[nH]c(NC(=O)c3cc4ccccc4cn3)nc2c1 [Example 140, isoquinoline-3-carboxylic acid [5-(1H-imidazol-2-ylcarbamoyl)-1H-benzoimidazol-2-yl]-amide] was run?
Answer: ≤ 2000 nM

Question: For CS(=O)(=O)c1ccc(CNC(=O)c2cccc3[nH]c(NC(=O)c4cc5ccccc5cn4)nc23)cc1 [Example 155, isoquinoline-3-carboxylic acid [4-(4-methanesulfonyl-benzylcarbamoyl)-1H-benzoimidazol-2-yl]-amide], which EC50 is on record?
Answer: ≤ 2000 nM

Question: Which EC50 does the source give for COc1ccc(CNC(=O)c2cccc3nc(NC(=O)c4cc5ccccc5cn4)[nH]c23)cc1 [Example 165, Isoquinoline-3-carboxylic acid [7-(4-methoxy-benzylcarbamoyl)-1H-benzoimidazol-2-yl]-amide] here?
Answer: ≤ 2000 nM

Question: For COc1ccc(CCNC(=O)c2cccc3nc(NC(=O)c4cc5ccccc5cn4)[nH]c23)cc1 [Example 176, Isoquinoline-3-carboxylic acid {7-[2-(4-methoxy-phenyl)-ethylcarbamoyl]-1H-benzoimidazol-2-yl}-amide], which EC50 is on record?
Answer: ≤ 2000 nM

Question: For Cc1nc(NC(=O)c2cccc3[nH]c(NC(=O)c4cc5ccccc5cn4)nc23)[nH]c1C [Example 193, Isoquinoline-3-carboxylic acid [4-(4,5-dimethyl-1H-imidazol-2-ylcarbamoyl)-1H-benzoimidazol-2-yl]-amide], which EC50 is on record?
Answer: ≤ 2000 nM

Question: How did the EC50 turn out when O=C(Nc1nc2c(C(=O)Nc3nc4c(s3)CNCC4)cccc2[nH]1)c1cc2ccccc2cn1 [Example 198, isoquinoline-3-carboxylic acid [7-(4,5,6,7-tetrahydro-thiazolo[5,4-c]pyridin-2-ylcarbamoyl)-1H-benzoimidazol-2-yl]-amide] was run?
Answer: ≤ 2000 nM

Question: With CN1CCc2nc(NC(=O)c3cccc4[nH]c(NC(=O)c5cc6ccccc6cn5)nc34)sc2C1 [Example 212, Isoquinoline-3-carboxylic acid [4-(5-methyl-4,5,6,7-tetrahydro-thiazolo[5,4-c]pyridin-2-ylcarbamoyl)-1H-benzoimidazol-2-yl]-amide] as the compound, how does the EC50 read?
Answer: ≤ 2000 nM

Question: With Cn1ccnc1CN1CCc2nc(NC(=O)c3cccc4[nH]c(NC(=O)c5cc6ccccc6cn5)nc34)sc2C1 [Example 247, Isoquinoline-3-carboxylic acid {4-[5-(1-methyl-1H-imidazol-2-ylmethyl)-4,5,6,7-tetrahydro-thiazolo[5,4-c]pyridin-2-ylcarbamoyl]-1H-benzoimidazol-2-yl}-amide] as the compound, how does the EC50 read?
Answer: ≤ 2000 nM

Question: How did the EC50 turn out when COc1cc2ccnc(C(=O)Nc3nc4c(C(=O)Nc5ncc[nH]5)cccc4[nH]3)c2cc1OC [Example 289, 6,7-dimethoxy-isoquinoline-1-carboxylic acid [4-(1H-imidazol-2-ylcarbamoyl)-1H-benzoimidazol-2-yl]-amide] was run?
Answer: ≤ 2000 nM

Question: Which EC50 does the source give for COc1ccc2cnc(C(=O)Nc3nc4c(C(=O)Nc5ncc[nH]5)cccc4[nH]3)cc2c1 [Example 294, 6-Methoxy-isoquinoline-3-carboxylic acid [4-(1H-imidazol-2-ylcarbamoyl)-1H-benzoimidazol-2-yl]-amide] here?
Answer: ≤ 2000 nM

Question: COc1cccc2cc(C(=O)Nc3nc4c(C(=O)Nc5ncc[nH]5)cccc4[nH]3)ncc12 [Example 295, 8-methoxy-isoquinoline-3-carboxylic acid [4-(1H-imidazol-2-ylcarbamoyl)-1H-benzoimidazol-2-yl]-amide] was tested. Which EC50 did it give?
Answer: ≤ 2000 nM

Question: With COc1ccc2cc(C(=O)Nc3nc4c(C(=O)Nc5ncc[nH]5)cccc4[nH]3)ncc2c1 [Example 296, 7-methoxy-isoquinoline-3-carboxylic acid [4-(1H-imidazol-2-ylcarbamoyl)-1H-benzoimidazol-2-yl]-amide] as the compound, how does the EC50 read?
Answer: ≤ 2000 nM

Question: How did the EC50 turn out when Cc1nc(C(=O)Nc2nc3c(C(=O)Nc4ncc[nH]4)cccc3[nH]2)cc2ccccc12 [Example 300, 1-methyl-isoquinoline-3-carboxylic acid [4-(1H-imidazol-2-ylcarbamoyl)-1H-benzoimidazol-2-yl]-amide] was run?
Answer: ≤ 2000 nM

Question: How did the EC50 turn out when O=C(Nc1nc2c(C(=O)Nc3ncc[nH]3)cccc2[nH]1)c1nccc2ccccc12 [Example 311, Ar = Isoquinoline-1-yl] was run?
Answer: ≤ 2000 nM

Question: How did the EC50 turn out when COc1cc2cnc(C(=O)Nc3nc4c(C(=O)Nc5ncc[nH]5)cccc4[nH]3)cc2cc1OC [Example 312, Ar = 6,7-Dimethoxy-isoquinoline-3-yl] was run?
Answer: ≤ 2000 nM

Question: How did the EC50 turn out when O=C(Nc1nc2c(C(=O)Nc3ncc[nH]3)cccc2[nH]1)c1cc2cc3c(cc2cn1)OCCO3 [Example 318, Ar = 2,3-Dihydro-[1,4]dioxino[2,3-g]isoquinoline-8-yl] was run?
Answer: ≤ 2000 nM

Question: Which EC50 does the source give for N#Cc1cccc(-c2cccc(C(=O)Nc3nc4c(C(=O)Nc5ncc[nH]5)cccc4[nH]3)n2)c1 [Example 343, 2-{[6-(3-cyano-phenyl)-pyridine-2-carbonyl]-amino}-1H-benzoimidazole-4-carboxylic acid (1H-imidazol-2-yl)-amide] here?
Answer: ≤ 2000 nM

Question: Which EC50 does the source give for O=C(Nc1nc2c(C(=O)Nc3ncc[nH]3)cccc2[nH]1)c1cncc(-c2cccc(F)c2)c1 [Example 351, Ar = 5-(3-Fluoro-phenyl)-pyridine-3-yl] here?
Answer: ≤ 2000 nM

Question: O=C(Nc1nc2c(C(=O)Nc3ncc[nH]3)cccc2[nH]1)c1cccc(-c2ccco2)n1 [Example 355, Ar = 6-(Furan-2-yl)-pyridine-2-yl] was tested. Which EC50 did it give?
Answer: ≤ 2000 nM

Question: With O=C(Nc1nc2c(C(=O)Nc3ncc[nH]3)cccc2[nH]1)c1cncc(C#Cc2ccccc2)c1 [Example 414, 2-[(5-phenylethynyl-pyridine-3-carbonyl)-amino]-1H-benzoimidazole-4-carboxylic acid (1H-imidazol-2-yl)-amide] as the compound, how does the EC50 read?
Answer: ≤ 2000 nM

Question: O=C(Nc1nc2c(C(=O)Nc3ncc[nH]3)cccc2[nH]1)c1cccc(C#Cc2ccccc2)n1 [Example 416, 2-[(6-phenylethynyl-pyridine-2-carbonyl)-amino]-1H-benzoimidazole-4-carboxylic acid (1H-imidazol-2-yl)-amide] was tested. Which EC50 did it give?
Answer: ≤ 2000 nM

Question: For CS(=O)(=O)c1cccc(C#Cc2cccc(C(=O)Nc3nc4c(C(=O)Nc5ncc[nH]5)cccc4[nH]3)n2)c1 [Example 417, 2-{[6-(3-methanesulfonyl-phenylethynyl)-pyridine-2-carbonyl]-amino}-1H-benzoimidazole-4-carboxylic acid (1H-imidazol-2-yl)-amide], which EC50 is on record?
Answer: ≤ 2000 nM

Question: With CC(C)(C)C#Cc1cccc(C(=O)Nc2nc3c(C(=O)Nc4ncc[nH]4)cccc3[nH]2)n1 [Example 428, Ar = 6-(3,3-Dimethyl-but-1-ynyl)-pyridine-2-yl] as the compound, how does the EC50 read?
Answer: ≤ 2000 nM

Question: O=C(Nc1nc2c(C(=O)Nc3ncc[nH]3)cccc2[nH]1)c1cccc(C#Cc2cccnc2)n1 [Example 434, Ar = 6-(Pyridin-3-ylethynyl)-pyridine-2-yl] was tested. Which EC50 did it give?
Answer: ≤ 2000 nM

Question: For O=C(Nc1nc2c(C(=O)Nc3ncc[nH]3)cccc2[nH]1)c1cccc(C#CC2CC2)n1 [Example 439, Ar = 6-(Cyclopropylethynyl)-pyridine-2-yl], which EC50 is on record?
Answer: ≤ 2000 nM

Question: How did the EC50 turn out when CS(=O)(=O)c1ccc(CNC(=O)c2cc(-c3ccncc3)cc3[nH]c(NC(=O)c4cc5ccccc5cn4)nc23)cc1 [Example 458, isoquinoline-3-carboxylic acid [4-(4-methanesulfonyl-benzylcarbamoyl)-6-pyridin-4-yl-1H-benzoimidazol-2-yl]-amide] was run?
Answer: ≤ 2000 nM

Question: With CCOc1cc(C(=O)Nc2ncc[nH]2)c2[nH]c(NC(=O)c3cc4ccccc4cn3)nc2c1 [Example 472, isoquinoline-3-carboxylic acid [5-ethoxy-7-(1H-imidazol-2-ylcarbamoyl)-1H-benzoimidazol-2-yl]-amide] as the compound, how does the EC50 read?
Answer: ≤ 2000 nM

Reference: patent US20060223849A1, “Benzazole derivatives, compositions, and methods of use as beta-secretase inhibitors” (priority 2005, published 2006)
